SMILES | melting point
CCn1c(=O)n(/C(C)=C\SC)c2ccccc21 [Example 5, 1-ethyl-3-[(1Z)-1-(methylsulfanyl)prop-1-en-2-yl]-1,3-dihydro-2H-benzimidazol-2-one] | 74 °C
CS/C=C(/C)n1c(=O)n(C)c2ccccc21 [Example 1, 1-methyl-3-[(1Z)-1-(methylsulfanyl)prop-1-en-2-yl]-1,3-dihydro-2H-benzimidazol-2-one] | 66 °C (dec.)
CS/C=C(/C)n1c(=O)n(Cc2ccccc2)c2ccccc21 [Example 2, 1-benzyl-3-[(1Z)-1-(methylsulfanyl)prop-1-en-2-yl]-1,3-dihydro-2H-benzimidazol-2-one] | 227 °C (dec.)

Continued, values first:

melting point | SMILES
148 °C | CS/C=C(/C)n1c(=O)n(Cc2cc(C(F)(F)F)cc(C(F)(F)F)c2)c2ccccc21 [Example 6, 1-[3,5-bis(trifluoromethyl)benzyl]-3-[(1Z)-1-(methylsulfanyl)prop-1-en-2-yl]-1,3-dihydro-2H-benzimidazol-2-one]
194 °C | O=c1[nH]c2ccccc2n1Cc1ccccc1 [Example 11, 1-benzyl-1,3-dihydro-2H-benzimidazol-2-one]
194 °C | CS/C=C(/C)n1c(=O)n(C)c2ccc(C(F)(F)F)cc21 [Example 9, 1-methyl-3-[(1Z)-1-(methylsulfanyl)prop-1-en-2-yl]-5-(trifluoromethyl)-1,3-dihydro-2H-benzimidazol-2-one]
110 °C | CS/C=C(/C)n1c(=O)n(C)c2cc(F)ccc21 [Example 10, 5-fluoro-3-methyl-1-[(1Z)-1-(methylsulfanyl)prop-1-en-2-yl]-1,3-dihydro-2H-benzimidazol-2-one]

From US7906541B2, “Process to prepare new substituted 1H-benzo[d]imidazol-2(3H)-ones, new intermediates and their use as BACE 1 inhibitors” (Universite Paul Cezanne-Aix Marseille III, priority 2008, dated 2011)
